# Key:
# [1] = test system: BACE1; experiment: BACE1 expression, Western blot in T98G cells; format: cell-based; conditions: 2 days
# Method: (§1) U-87 MG and T98G cells were maintained at 37° C. in a CO2 incubator in Dulbecco's Modified Eagle's Medium (DMEM) supplemented with 10% fetal bovine serum (FBS) and 1% of penicillin/streptomycin (Invitrogen). Cells were treated with DMSO, 3 μM, or 6 μM ALT-59 for 2 days and subjected to Western blotting analysis using the indicated antibodies. Protein bands were quantified using the ImageJ software.
# [2] = biological target: T1, His-Sumo-TDP43 (Homo sapiens, UniProt Q13148); experiment: Binding of His-Sumo-TDP43 to TG12-biotin, streptavidin bead pull-down and Western blot
# T1 construct: made in house; host or cells: E. coli Rosetta (DE3), vector pSumo/TDP43, Ni-NTA purified
# T1 sequence (Q13148 whole entry): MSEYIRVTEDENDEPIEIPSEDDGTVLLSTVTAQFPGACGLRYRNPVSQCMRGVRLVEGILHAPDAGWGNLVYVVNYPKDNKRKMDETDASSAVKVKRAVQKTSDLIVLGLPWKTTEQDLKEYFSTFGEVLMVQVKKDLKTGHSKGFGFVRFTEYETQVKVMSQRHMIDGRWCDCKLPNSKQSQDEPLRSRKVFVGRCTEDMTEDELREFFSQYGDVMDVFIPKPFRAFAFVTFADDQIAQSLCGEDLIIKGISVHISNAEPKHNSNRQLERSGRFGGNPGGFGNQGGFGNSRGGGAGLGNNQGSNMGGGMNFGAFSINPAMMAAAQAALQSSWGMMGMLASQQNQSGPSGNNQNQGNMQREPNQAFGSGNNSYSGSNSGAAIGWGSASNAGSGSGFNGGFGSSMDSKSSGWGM
# Method: Additional experiments were performed to confirm the direct binding of ALT-59 to TDP-43. One microgram of purified His-Sumo-TDP43 was incubated with 1 μg TG12-biotin ([…]-biotin (SEQ ID NO: 1)) in binding buffer containing 20 mM HEPES, pH 7.5, 0.3% CHAPS, 150 mM NaCl, (Sigma-Aldrich), and protease inhibitor cocktail (Roche) for 4 hours on ice in the presence of carrier (50% Cremophor EL, 50% absolute ethanol) or 30 μM ALT-59 dissolved in carrier. Streptavidin magnetic beads (20 μl settled beads, GE Healthcare Life Sciences) were added to pull down the DNA-protein complex by rotating at 4° C. for 2 hours. After being washed 5 times with binding buffer, samples were boiled in protein sample buffer. In another experiment, DNA-protein complex bound to Streptavidin magnetic beads were washed and split into three parts, two of which were incubated with either carrier or ALT-59 for 4 hours with rotation at 4° C. to elute TDP-43 from TG12-biotin-streptavidin. The third part and elutes were mixed with protein sample buffer and boiled. Protein samples from the above experiments were loaded onto 4-20% Tris-glycine gel (Invitrogen) for fractionation. Western blotting was performed using anti-TDP-43 antibody (Proteintech Group).
# [3] = test system: Tau; experiment: Tau expression, Western blot in U-87 MG cells; format: cell-based; conditions: 2 days
# Method: as §1
# [4] = test system: LAMP2 pre-mRNA; experiment: LAMP2 pre-mRNA alternative splicing, RT-PCR; format: cell-based; conditions: MDA-MB-231 cells, 6 μM ALT-59
# Method: (§2) Long stretches of TG repeats are found in exon 9 and intron 9 of Lamp2 gene. A shorter stretch is located in intron 10. […] RT-PCR analysis was performed to test if ALT-59 treatment affects LAMP2 alternative splicing. MDA-MB-231 cells were cultured as described above and treated with DMSO or 6 μM ALT-59. Total RNA was extracted using the RNeasy Mini Kit (Qiagen) and equal amount of RNA was reverse transcribed using the SuperScript III First-Strand Synthesis System (Invitrogen). PCR reactions were performed using forward primer located on exon 1 and a reverse primer located on exon 11. PCR samples were resolved in a 1.2% agarose gel and stained with ethidium bromide.
# [5] = test system: Phe508del-CFTR; experiment: Phe508del-CFTR localization, immunofluorescence microscopy, primary bronchial epithelial cells of a cystic fibrosis patient; format: cell-based, human; conditions: primary bronchial epithelial cells homozygous for Phe508del-CFTR, 4 μM, 3 days
# Method: (§3) MDA-MB-231 and U-87 MG cells were cultured on cover slips under the conditions as described above. Cells were treated with DMSO or 4 μM ALT-59 for 3 days. Primary human bronchial epithelial cells isolated from cystic fibrosis patient homozygous for Phe508del-CFTR (Lifeline Cell Technology) were cultured on cover slips in BronchiaLife Cell Culture Medium supplemented with BrochiaLife LifeFactors Kit (Lifeline Cell Technology) and maintained at 37° C. in a CO2 incubator. Cells were treated with DMSO, 4 μM ALT-59, 2 μM ALT-308, or 4 μM ALT-410 for 3 days.
# (§4) Cells were fixed in 4% paraformaldehyde for 15 minutes and permeabilized in 0.1% Triton X-100 for 2 minutes. After being blocked in 5% BSA (Sigma-Aldrich), cells were incubated with anti-CFTR antibody (Alomone Labs) followed by Alexa Fluor 488 anti-rabbit secondary antibody. Reagents were buffered in GIBCO PBS (Phosphate-Buffered Saline). Images were taken using Carl Zeiss LSM 510 Laser Scanning Microscope. Parameters were set identical for all images.
# [6] = biological target: T2, TDP43-His (Homo sapiens, UniProt Q13148); experiment: Expression of histidine-tagged TDP-43 in E. coli whole cell lysates; format: cell-based; conditions: 60 μM ALT-59 with 2 μg/ml PMBN, 0.5 mM IPTG, Rosetta (DE3) cells, Coomassie stain
# T2 construct: made in house; host or cells: E. coli Rosetta (DE3), vector pRETb/TDP43-His; protein not purified, read in whole cell lysate
# T2 sequence (Q13148 whole entry): as above
# Method: Rosetta (DE3) cells were transformed with pRETb/TDP43-His according manufacture's instruction. After the culture from a single colony reached O.D 0.6 with shaking at 37° C. for 5 hours, it was split into six equal cultures and treated as indicated in FIG. 3. (Lane 1) un-induced blank; (Lane 2) 0.5 mM IPTG, 60 μM DMSO; (Lane 3) 0.5 mM IPTG, 60 μM ALT-59; (Lane 4) 0.5 mM IPTG, 2 μg/ml PMBN; (Lane 5) 0.5 mM IPTG, 2 μg/ml PMBN, 30 μM ALT-59; (Lane 6) 0.5 mM IPTG, 2 μg/ml PMBN, 60 μM ALT-59. Cells were cultured overnight at 25° C. on a shaker and then collected, sonicated in protein sample buffer and boiled before loading on a 10% SDS-PAGE gel. Protein were visualized by Coomassie Brilliant Blue stain.
# [7] = test system: CFTR; experiment: CFTR localization, immunofluorescence microscopy, MDA-MB-231 cells; format: cell-based; conditions: 4 μM, 3 days
# Method: as §3, §4
# [8] = test system: POLDIP3 exon 3; experiment: POLDIP3 exon 3 splicing, RT-PCR; format: cell-based; conditions: MDA-MB-231 cells
# Method: as §2
# (§5) It has been reported that TDP-43 causes CFTR exon 9 skipping, ApoA2 exon 3 skipping, and POLDIP3 exon 3 inclusion. Additional experiments were performed to further confirm that TDP-43 is the target of ALT-59. RT-PCR analysis was performed as described above using the following primers for the three genes. PCR samples were analyzed by polyacrylamide gel electrophoresis and stained with ethidium bromide.
# [9] = test system: ApoA2 pre-mRNA; experiment: ApoA2 pre-mRNA splicing, RT-PCR; format: cell-based; conditions: MDA-MB-231 cells, endogenous gene
# Method: as §2, §5
# [10] = test system: transgenic C. elegans expressing full-length (wild-type) human TDP-43; experiment: Paralysis caused by hTDP-43 expression in C. elegans; format: in vivo; conditions: 10 μM ALT-59 in NGM plates
# Method: Wild-type N2 strain or transgenic C. elegans expressing full-length (wild-type) human TDP-43 (strain number, CL6049, Caenorhabditis Genetics Center, Minneapolis, Minn.) were placed on freshly prepared Nematode Growth Medium (NGM) petri plates with or without 10 μM ALT-59.
# Uncoordinated phenotypes were imaged, and movement deficits were quantified by counting body thrashes in liquid after recording under an inverted microscope.
smiles,measurement,setting,value
"CN(C)c1ccc(C2Nc3ccc4ccccc4c3C3=C2C(=O)CC(C)(C)C3)cc1Br (stereo not drawn) [ALT-59, 5-(3-bromo-4-(dimethylamino)phenyl)-2,2-dimethyl-2,3,5,6-tetrahydrobenzo[a]phenanthridin-4(1H)-one]",reduction of BACE1 expression,[1]; 3 μM,31%
same,reduction of BACE1 expression,[1]; 6 μM,53%
same,binding of TDP-43 to TG12,"[2]; 30 μM ALT-59 in carrier, 4 hours on ice",can block the binding of TDP-43 to TG12
same,elution of TDP-43 from the TDP43-TG12 complex,"[2]; preformed DNA-protein complex on streptavidin beads, 4 hours at 4° C.",capable of displacing TG12 from the TDP43-TG12 complex
same,reduction of Tau expression,[3]; 3 μM,52%
same,reduction of Tau expression,[3]; 6 μM,38%
same,level of LAMP2a mRNA,[4],reduces the level of LAMP2a mRNA
same,level of LAMP2c mRNA,[4],increases the level of LAMP2c mRNA
same,localization of Phe508del-CFTR on the plasma membrane,[5],increased localization of Phe508del-CFTR on the plasma membrane
same,TDP43-His protein expression,[6],increased protein expression
same,CFTR localization,[7],redistribution of CFTR from the perinuclear region to the plasma membrane
same,splicing of POLDIP3 exon 3,[8],remain unchanged
same,ApoA2 splicing,[9],blocking ApoA2 splicing
same,coiled body posture and uncoordinated phenotype,[10],rescued the coiled body posture and uncoordinated phenotype
same,percentage of paralysis,[10]; without treatment 93%,29.5%
